Assay results from patent publication US9078907B2, “Immunoregulator compounds” (Universita Degli Studi Di Roma “Tor Vergata”, priority 2001, dated 2015).

Assays:
[1] = test system: Mycobacterium tuberculosis; assay: Dose dependent effect of S1P on MTB replication in macrophages from peripheral blood monocytes; format: cell-based; details: human monocyte-derived macrophages, 4 donors, 0.5, 5 or 50 μM, fifth day after infection
Experimental: Peripheral blood mononuclear cells were isolated from human Buffy coat blood preparations by gradient centrifugation and suspended at 5×10^6/ml in complete medium [RPMI 1640 (Gibco BRL) supplemented with 10% fetal bovine serum (Gibco BRL), 5 mM L-glutamine and Gentamicine (5 μg/ml)]. Monocytes were then separated by adherence for 1 hour in polystyrene 75 cm^2 flasks (Corning, Cambridge, Mass.). After incubation, non-adherent cells were removed by three washes with warm RPMI 1640. […] Finally, adherent monocytes were collected after 15 minute incubation at 4° C. in the presence of 5 mM EDTA in PBS. Cells then were washed, incubated in complete medium for 5-7 days in 24 well plate at the concentration of 10^6 cells/ml to get monocyte-derived macrophages. […]
Sphingosine 1-phosphate (S-1P), used at the concentrations of 0.5, 5 or 50 μM inhibits intracellular replication of Mycobacterium tuberculosis in human monocyte-derived macrophages (MDM) from peripheral blood of healthy donors. Results are obtained from experiments performed on MDM from 4 different donors and are expressed as the means of the percentages of mycobacterial killing±standard error at the fifth day after infection. Percentage of mycobacterial killing is calculated by using the following formula: [1−(CFU from infected and S-1P stimulated MDM/CFU from infected unstimulated MDM)]×100.

[2] = test system: Mycobacterium tuberculosis; assay: Colony forming units of H37Rv M. tuberculosis in differentiated THP-1 cells; format: cell-based; details: THP-1 macrophage cell line, MOI 1:10 or 1:1, 5 μM, up to 5 or 7 days
Experimental: Human monocytic THP-1 leukemia line cells were used in this example as a model for macrophage response. In order to obtain macrophage phenotype, 5×10^5/ml THP-1 cells were induced to differentiate by 48 hours incubation in the presence of 20 ng/ml Phorbol Myristate Acetate (PMA). Differentiated THP-1 cells (dTHP-1) were then centrifuged three times and suspended in complete medium [RPMI 1640 (Gibco BRL) supplemented with 10% fetal bovine serum, 5 mM L-glutamine) (Invitrogen), 1 mM sodium pyruvate (Gibco BRL) and non-essential amino acids (Euroclone), 5 μg/ml gentamicin (Invitrogen)]. dTHP-1 were then infected for 3 hours with H37Rv M. tuberculosis at the multiplicity of infection of 1:10 (FIG. 8A) or 1:1 (FIG. 8B) bacterium/cell. After infection cells were washed three times with RPMI 1640 and incubated in complete medium for further 1, 2 and 5 days (FIG. 8A) or 1 and 7 days (FIG. 8B) in the presence or absence of sphingosine 1-phosphate used at the concentration of 5 μM. […]

[3] = test system: MTB-FITC infected macrophages; assay: Phagolysosome maturation by flow cytometry of FITC-labelled MTB infected macrophages; format: cell-based, human; details: MTB-FITC MOI 1 for 3 hours, 5 μM S1P for 30 minutes; S1P non-treated 63.4%
Experimental: In some experiments MTB aliquots, after thawing at room temperature, centrifuged at 10000 rpm for 10 minutes, suspended in PBS and sonicated for 1-2 minutes, were labelled with fluorescein isothiocyanate (FITC) (Sigma). FITC, pre-suspended at 1 μg/ml concentration, was added to the bacterial suspension, which was incubated at 37° C. in the presence of 5% CO2 for about 90 minutes. At the end of the incubation the bacterial suspension was washed three times with centrifugation at 14000 rpm for 15 minutes and suspended in PBS at required concentration.
By virtue of extreme sensitivity of fluorescein isothiocyanate (FITC) to acid pHs this molecule was used to monitor the phagosome acidity and have therefore information about maturation stage of phagolysosome. To this aim, bacteria were labelled with fluorescein isothiocyanate (FITC) as above described. Infection was carried out using FITC labelled bacteria. Then, cells were washed after 3 hours and stimulated for 30 minutes with 5 μM sphingosine 1-phosphate and following 1.5% paraformaldehyde (PFA) fixated and finally monitored by flow cytofluorometry.
In order to evaluate the effect of S1P on a specific antimicrobial activity as the maturation of phagolysosome, the infection with FITC-labelled MTB was carried out and the fluorescence values of FITC-MTB were used as indicators of the phagolysosome maturation. […]

## CCCCCCCCCCCCC/C=C/[C@@H](O)[C@@H](N)COP(=O)(O)O [S1P, D-erythro-sphingosine 1-phosphate]
[1]
  intracellular replication of Mycobacterium tuberculosis (percentage of mycobacterial killing): inhibits
[2]
  intracellular replication of Mycobacterium tuberculosis (CFU): inhibits
[3]
  % of fluorescent macrophages (FITC-MTB fluorescence): 38.9%
